According to patent publication US8778928B2 (priority 2009, dated 2014):
pIC50: −log10 of the molar value. Counter-ions that a name gives are not always drawn.

Target: α7-subtype of nicotinic receptors (Rattus norvegicus, UniProt Q05941)
Assay: biochemical
Format: binding

α7-subtype of nicotinic receptors, sequence (Q05941 23-502): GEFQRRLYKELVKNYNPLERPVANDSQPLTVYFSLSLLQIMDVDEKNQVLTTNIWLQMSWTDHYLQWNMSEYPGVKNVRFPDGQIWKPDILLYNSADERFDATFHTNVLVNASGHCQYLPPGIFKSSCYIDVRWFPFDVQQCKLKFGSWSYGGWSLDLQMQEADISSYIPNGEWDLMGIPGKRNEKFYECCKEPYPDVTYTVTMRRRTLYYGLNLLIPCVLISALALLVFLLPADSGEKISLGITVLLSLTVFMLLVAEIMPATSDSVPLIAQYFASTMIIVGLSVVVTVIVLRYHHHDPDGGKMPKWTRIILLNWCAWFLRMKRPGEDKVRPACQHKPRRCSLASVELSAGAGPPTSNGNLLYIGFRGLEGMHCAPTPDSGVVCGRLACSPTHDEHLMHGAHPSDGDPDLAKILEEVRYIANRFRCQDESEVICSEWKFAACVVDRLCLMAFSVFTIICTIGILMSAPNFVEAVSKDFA

Compound: Cn1ccc2ccc(-c3nnc(N4CCN5CCC4CC5)o3)cc21 [Compound A1, 4-[5-(1-Methyl-1H-indol-6-yl)-[1,3,4]oxadiazol-2-yl]-1,4-diaza-bicyclo[3.2.2]nonane fumaric acid salt]
- pIC50: 7.96

Compound: FCCn1ccc2ccc(-c3nnc(N4CCN5CCC4CC5)o3)cc21 [Compound A2, 4-{5-[1-(2-Fluoro-ethyl)-1H-indol-6-yl]-[1,3,4]oxadiazol-2-yl}-1,4-diaza-bicyclo[3.2.2]nonane fumaric acid salt]
- pIC50: 8.38

Compound: c1cc2ccc(-c3nnc(N4CCN5CCC4CC5)o3)cc2[nH]1 [Compound A3, 2-(1,4-diazabicyclo[3.2.2]nonan-4-yl)-5-(1H-indol-6-yl)-1,3,4-oxadiazole free base]
- pIC50: 7.80

Compound: CC(C)n1ccc2ccc(-c3nnc(N4CCN5CCC4CC5)o3)cc21 [Compound A4, 2-(1,4-diazabicyclo[3.2.2]nonan-4-yl)-5-(1-isopropylindol-6-yl)-1,3,4-oxadiazole free base]
- pIC50: 7.41

Compound: CCn1ccc2ccc(-c3nnc(N4CCN5CCC4CC5)o3)cc21 [Compound A5, 2-(1,4-diazabicyclo[3.2.2]nonan-4-yl)-5-(1-ethylindol-6-yl)-1,3,4-oxadiazole fumaric acid salt]
- pIC50: 8.52
